Legend:
[1] = Population pharmacokinetic model (linear 5-compartment, NONMEM) of venous plasma concentrations; design: species or system human; settings: population PK model; lean body weight covariate
[2] = Pharmacokinetic/pharmacodynamic models (probabilistic and continuous) for level of sedation (MOAA/S score); design: species or system human; settings: subjects older than 65
[3] = Stella reports, cited from earlier work
patients = settings: anesthetic induction doses; Bryson et al.; cited from earlier work

Row | Compound | Increase of central volume of propofol generated from the prodrug [1] | Increase of central volume of the prodrug [1] | Increase of clearance of the prodrug [1] | Lowering of effect site concentration at which a given MOAA/S score is attained, versus younger subjects ([2]; continuous model) | Lowering of effect site concentration at which a given MOAA/S score is attained, versus younger subjects ([2]; probabilistic model) | Stability at pH levels suitable for making pharmaceutical formulations [3] | Breakdown in vivo under physiological conditions ([3]; administered intravenously) | Patients with respiratory consequences, including a reduction in tidal volume and apnea (patients)
1 | CC(C)c1cccc(C(C)C)c1OCOP(=O)([O-])[O-].[Na+].[Na+] [propofol prodrug, O-phosphonooxymethyl propofol disodium salt] | 2.5 % per kg of LBW over 55 kg | 1.8 % per kg of LBW over 55 kg | 1.4 % per kg of LBW over 55 kg | about 25% | about 33% | good stability | quickly breaks down in vivo | –
2 | CC(C)c1cccc(C(C)C)c1O [propofol] | – | – | – | – | – | – | – | up to 83%

— patent US20090221532A1 (priority 2005, published 2009)
